Where no end group is shown, it is not given here.

Common to all, as to format: cell-based
Assay [1] concerns hyaluronic acid. The assay can be described thus: Hyaluronic acid labeling in human skin samples cultivated ex vivo. The conditions noted are these: topical 0.5%, 1% or 3% (stock solution 40 mg/kg), 24, 48 and/or 72 hours. Here is the method: (§1) The objective of this study is to determine the influence of the peptide SEQ ID NO: 5 on the expression of the following extracellular matrix proteins: collagen I, collagen III, pro-collagen, fibronectin and hyaluronic acid in the human skin. For this, specific labelings were performed on human skin samples cultivated ex vivo.
(§2) Human skin samples are placed in culture at the air/liquid interface. The peptide SEQ ID NO: 5 is applied topically on the samples at final concentrations of 0.5%, 1% or 3%, (using a stock solution at 40 mg/kg) then the samples are incubated for 24, 48 and/or 72 hours at 37° C.
(§3) These skin samples are then fixed with formaldehyde then embedded in paraffin or fixed and embedded in OCT then frozen at −20° C. Sections with a thickness of 4 μm are then produced (6 μm for cold sections).
(§4) The labelings of the collagen I and the collagen III, on the samples embedded in paraffin, are performed after unmasking specific sites. The immunolabelings are performed using a specific rabbit collagen I polyclonal antibody (Rockland, Ref: 600-401-103-0.5), a specific rabbit collagen III polyclonal antibody (Rockland, Ref: 600-401-105-0.5), then an anti-rabbit secondary antibody coupled with a fluorochrome (Invitrogen, Ref: A21206). […]

Assay [2] deals with Collagen I messenger RNAs. The assay can be described thus: Expression of collagen I messenger RNAs by real-time PCR in human fibroblasts. The conditions noted are these: 0.5% and 1% (stock solution 40 mg/kg), 24, 48 and 72 hours, comparative Ct method, 18S control. How it is done:
The objective of this study is to determine the influence of the peptide SEQ ID NO: 5 on the expression of collagen I messenger RNAs in the human fibroblasts. For this, the expression of collagen I was studied by real-time PCR.
Human fibroblasts in culture are treated with the peptide SEQ ID NO: 5 at final concentrations of 0.5% and 1% (using a stock solution at 40 mg/kg) for 24, 48 and 72 hours. The total RNAs are extracted using an extraction kit (QIAGEN), then reverse transcribed with a specific kit containing RNase inhibitors (Applied Biosystems). A real-time PCR is performed in a thermocycler using a specific Collagen I TaqMan Gene Expression Assay (Applied Biosystem, […]) and a specific 18S TaqMan Gene Expression Assay used as an endogenous control (Applied Biosystem, […]). The relative quantification of the expression of the Collagen I messenger RNAs is performed by the comparative Ct method (the Ct, the threshold cycle, is the intersection between the amplification curve and the threshold line).
For orientation: Quantitative PCR measures a nucleic acid by following its amplification.

The next assay has as its system fibronectin. The assay can be described thus: Specific labeling of fibronectin in human fibroblast cultures (epifluorescence). The note with it: human dermal fibroblasts; peptide 0.5%, 1% and/or 3% (stock solution 40 mg/kg); 24, 48 and/or 72 hours; vs control. Here is the method:
(§5) The objective of this study is to determine the influence of the peptides SEQ ID NO: 4 and NO: 5 and the peptide SEQ ID NO: 4 on the expression of the following extracellular matrix proteins: collagen I, collagen III, pro-collagen, fibronectin and hyaluronic acid in human fibroblasts. For this, specific labelings were performed on normal human fibroblast cultures obtained from the dermis.
(§6) Human fibroblasts in culture are treated with the peptide SEQ ID NO: 5 or the peptide SEQ ID NO: 4 at a final concentration of 0.5%, 1% and/or 3% (based on a stock solution at 40 mg/kg), for 24, 48 and/or 72 hours. The cells are then washed, fixed with cold methanol for 4 minutes at 4° C. (for the collagen I, collagen III and hyaluronic acid labelings) or with formaldehyde at 3.7% for 10 minutes at room temperature (for the pro-collagen and fibronectin labelings). The cells are incubated in the presence of a specific rabbit collagen I polyclonal antibody (Rockland, Ref: 600-401-103-0.5), a specific rabbit collagen III polyclonal antibody (Rockland, Ref: 600-401-105-0.5), a specific rat pro-collagen polyclonal antibody (Millipore, Ref: MAB1912), a specific rabbit fibronectin polyclonal antibody (Sigma, Ref: F-3648), then an anti-rabbit secondary antibody coupled with a fluorochrome (Invitrogen, Ref: A21206) or anti-rat coupled with a fluorochrome (Invitrogen, A11006). […]

The test system of assay [3] is hyaluronic acid. The assay can be described thus: Specific labeling of hyaluronic acid in human fibroblast cultures (epifluorescence). The note with it: human dermal fibroblasts; peptide 0.5%, 1% and/or 3% (stock solution 40 mg/kg); 24, 48 and/or 72 hours; vs control. Here is the method:
as §5, §6

Assay [4] deals with collagen III. The experiment in a line: Specific labeling of collagen III in human fibroblast cultures (epifluorescence). The conditions noted are these: human dermal fibroblasts; peptide 0.5%, 1% and/or 3% (stock solution 40 mg/kg); 24, 48 and/or 72 hours; vs control. Here is the method:
as §5, §6

Assay [5] concerns collagen III. The experiment in a line: Collagen III immunolabeling in human skin samples cultivated ex vivo. The note with it: topical 0.5%, 1% or 3% (stock solution 40 mg/kg), 24, 48 and/or 72 hours. Here is the method:
as §1, §2, §3, §4

Assay [6] concerns pro-collagen. The experiment in a line: Pro-collagen immunolabeling in human skin samples cultivated ex vivo. The note with it: topical 0.5%, 1% or 3% (stock solution 40 mg/kg), 24, 48 and/or 72 hours. How it is done: as §1, §2, §3
The immunolabeling of the pro-collagen, on the samples embedded in OCT, is performed after fixing for 10 minutes with cold acetone. The immunolabeling is performed using a specific rat pro-collagen polyclonal antibody (Millipore, Ref: MAB 1912) then an anti-rat secondary antibody, coupled with a fluorescent marker (Invitrogen, A11006).
The cells are then examined under the epifluorescence microscope (Nikon Eclipse E600 microscope).

For assay [7], the system named is senescent fibroblasts (β-galactosidase activity). The assay can be described thus: Reversal of senescence induced by FOXO3a siRNA in human fibroblasts (β-galactosidase, X-Gal staining). The conditions noted are these: human fibroblasts treated with FOXO3a siRNA 25 nM; peptide 1% (stock solution 40 mg/kg); 48 hours. The text has this:
The objective of this study is to determine the influence of the peptide SEQ ID NO: 5 on senescent fibroblasts, of which the senescence has been induced by the extinction of the FOXO3a gene. These cells overexpress beta-galactosidase, in relation to their senescent state.
FOXO3a is a Forkhead transcription factor involved in cell longevity. In the skin, the negative regulation of FOXO3a accelerates the senescence of normal human fibroblasts (Hyun Kyoung K. et al. J. of Gerontol., 2005, vol. 60A n° 1, pages 4-9). This property was used to advantage to induce senescence in human fibroblasts by blocking FOXO3a expression by a specific interfering RNA (siRNA).
Human fibroblasts in culture are rendered senescent by treatment with a specific siRNA of FOXO3a at a final concentration of 25 nM using the Lipofectamine™ RNAiMAX (Invitrogen, Ref: 13778-075) transfection technique. Untreated controls are produced. The fibroblasts are treated in parallel by the peptide SEQ ID NO: 5 at a final concentration of 1% (using a stock solution at 40 mg/kg) for 48 hours.
The cells are rinsed and fixed in a fixation buffer (0.2% glutaraldehyde, 2% formaldehyde). The cells are then incubated at 37° C. without CO2 for 24 hours with an X-Gal solution at 1 mg/mL in 40 mM of citric acid/phosphate (pH 6), 5 mM K3FeCN6, 5 mM K4FeCN6, 150 mM NaCl and 2 mM MgCl2. […]

Assay [8] relates to collagen I. The experiment in a line: Collagen I immunolabeling in human skin samples cultivated ex vivo. The note with it: topical 0.5%, 1% or 3% (stock solution 40 mg/kg), 24, 48 and/or 72 hours. Here is the method: as §1, §2, §3, §4
For assay [9], the system named is collagen I. The assay can be described thus: Specific labeling of collagen I in human fibroblast cultures (epifluorescence). The note with it: human dermal fibroblasts; peptide 0.5%, 1% and/or 3% (stock solution 40 mg/kg); 24, 48 and/or 72 hours; vs control. Here is the method: as §5, §6
The next assay has as its system P16. The assay can be described thus: Expression of senescence marker P16 in human fibroblasts (immunolabeling). The conditions noted are these: 0.5% and 1% (stock solution 40 mg/kg), 48 hours. Here is the method:
The objective of this study is to determine the influence of the peptide SEQ ID NO: 5 on the expression of P16, a protein of which the expression in the skin increases with age. P16 is a protein involved in the negative regulation of the cellular cycle, which has been described as a reliable marker of cellular senescence (Brookes S. et al. Experimental Cell Research 298, 2004).
Human fibroblasts in culture are treated with the peptide SEQ ID NO: 5 at final concentrations of 0.5% and 1% (using a stock solution at 40 mg/kg) for 48 hours. The cells are prepared according to the Shandon Cytoblock® Cell preparation system kit (Thermo Scientific, Ref: 7401150).
The cells are then fixed with formaldehyde then embedded in paraffin. Sections of 4 μm are then produced. The labeling of p16 on the cells embedded in paraffin is performed after unmasking the specific sites. The immunolabelings are performed using a specific mouse p16 polyclonal antibody (Santa-Cruz, Ref: sc-81157), then an anti-mouse secondary antibody coupled with a fluorochrome (Invitrogen, Ref: A21202). The cells are then examined under the epifluorescence microscope (Nikon Eclipse E600 microscope).

Assay [10] relates to pro-collagen. The assay can be described thus: Specific labeling of pro-collagen in human fibroblast cultures (epifluorescence). The conditions noted are these: human dermal fibroblasts; peptide 0.5%, 1% and/or 3% (stock solution 40 mg/kg); 24, 48 and/or 72 hours; vs control. Here is the method:
as §5, §6

For “Gly-Pro-Ala-Gly-Pro-NH2 (GPAGP-NH2) [SEQ ID NO: 5]”, in the assay with hyaluronic acid [1] (dermis), the “expression of hyaluronic acid in the human dermis” value is “stimulates the expression”. Further, in the assay with hyaluronic acid [1] (epidermis), the “expression of hyaluronic acid in the human epidermis” value is “stimulates the expression”. In assay [2], the “expression of Collagen I messenger RNAs” value is “stimulates the expression”. Further, in the assay on fibronectin, the expression of fibronectin result is reported as “stimulate the expression”. For the same substance, the “expression of hyaluronic acid” value with hyaluronic acid [3] is “stimulate the expression”. Besides, the “expression of collagen III” value in the assay with collagen III [4] is given as “stimulate the expression”. For the same substance, the “expression of collagen III in the dermis” value in the assay on collagen III [5] is “stimulates the expression”. In addition, the “expression of pro-collagen in the dermis” value in the assay on pro-collagen [6] was “stimulates the expression”. For the same substance, the “β-galactosidase activity (number of cells stained blue)” value in assay [7] is on record as “decrease in the β-galactosidase activity”. Moreover, the “expression of collagen I in the dermis” value in the assay with collagen I [8] is reported as “stimulates the expression”. Also, the “expression of collagen I” value in the assay with collagen I [9] was “stimulate the expression”. Also, the “p16 immunolabeling, nuclear fluorescence (expression of the p16 senescence marker)” value with P16 is recorded as “less intense nuclear fluorescence”. The expression of pro-collagen result in the assay with pro-collagen [10] is given as “stimulate the expression”.

In the case of “Gly-Pro-Ala-Gly-Pro (GPAGP) [SEQ ID NO: 4]”, the expression of fibronectin entry in the assay with fibronectin is “stimulate the expression”. Besides, in the assay on hyaluronic acid [3], the “expression of hyaluronic acid” value was “stimulate the expression”. For the same substance, in the assay on collagen III [4], the “expression of collagen III” value is recorded as “stimulate the expression”. In addition, the “expression of collagen I” value in the assay on collagen I [9] is recorded as “stimulate the expression”. In the assay on pro-collagen [10], the expression of pro-collagen result was “stimulate the expression”.

The record behind these values is US20140044655A1, “NOVEL ACTIVATOR PEPTIDES FOR SYNTHESIZING EXTRACELLULAR MATRIX PROTEINS, AND COSMETIC COMPOSITIONS INCLUDING SAME” (ISP INVESTMENTS INC., priority 2011, published 2014).
